Assays:
FGFR3 enzyme = FGFR3 enzyme (Homo sapiens (Human), UniProt P22607); assay: FGFR Enzymatic Assay (peptide phosphorylation, FRET), FGFR3; assay type: biochemical; details: IC50 ratio showing FGFR3 selectivity; pre-incubated for 4 hours
Protocol: (§1) The inhibitor potency of the exemplified compounds was measured in an enzyme assay that measures peptide phosphorylation using FRET measurements to detect product formation. Inhibitors were serially diluted in DMSO and a volume of 0.5 μL was transferred to the wells of a 384-well plate.
(§2) GraphPad prism3 was used to analyze the data.

FGFR4 = FGFR4 (Homo sapiens (Human), UniProt P22455); assay: FGFR Enzymatic Assay (peptide phosphorylation, FRET), FGFR4; assay type: biochemical
Protocol: as §1
The enzymes were purchased from Millipore or Invitrogen.
as §2

[1] = IC50 ratio showing FGFR4 selectivity, pre-incubated for 4 hours
[2] = ratio of IC50 data showing FGFR4 selectivity, pre-incubated for 5 to 10 minutes

FGFR4, sequence (P22455 22-802): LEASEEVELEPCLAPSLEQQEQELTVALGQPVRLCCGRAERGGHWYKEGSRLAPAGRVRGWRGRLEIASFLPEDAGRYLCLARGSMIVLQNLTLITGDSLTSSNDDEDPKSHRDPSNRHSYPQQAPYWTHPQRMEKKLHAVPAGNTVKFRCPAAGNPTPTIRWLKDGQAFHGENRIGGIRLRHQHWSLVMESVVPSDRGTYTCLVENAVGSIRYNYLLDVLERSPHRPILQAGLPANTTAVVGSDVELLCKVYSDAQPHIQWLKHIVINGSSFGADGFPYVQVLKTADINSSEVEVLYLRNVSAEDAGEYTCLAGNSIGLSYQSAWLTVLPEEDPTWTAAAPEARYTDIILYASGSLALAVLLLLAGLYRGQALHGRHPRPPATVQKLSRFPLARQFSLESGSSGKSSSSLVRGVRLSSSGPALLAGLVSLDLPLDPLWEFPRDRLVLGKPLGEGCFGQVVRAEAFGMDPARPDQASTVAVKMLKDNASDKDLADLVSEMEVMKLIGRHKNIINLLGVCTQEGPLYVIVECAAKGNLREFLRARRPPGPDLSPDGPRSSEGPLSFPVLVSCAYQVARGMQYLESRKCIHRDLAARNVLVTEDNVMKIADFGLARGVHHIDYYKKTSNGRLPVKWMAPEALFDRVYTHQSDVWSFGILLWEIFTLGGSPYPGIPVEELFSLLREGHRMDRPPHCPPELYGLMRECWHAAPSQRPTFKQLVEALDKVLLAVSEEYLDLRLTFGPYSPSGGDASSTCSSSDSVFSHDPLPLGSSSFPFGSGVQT
FGFR3 enzyme, sequence (P22607 23-806): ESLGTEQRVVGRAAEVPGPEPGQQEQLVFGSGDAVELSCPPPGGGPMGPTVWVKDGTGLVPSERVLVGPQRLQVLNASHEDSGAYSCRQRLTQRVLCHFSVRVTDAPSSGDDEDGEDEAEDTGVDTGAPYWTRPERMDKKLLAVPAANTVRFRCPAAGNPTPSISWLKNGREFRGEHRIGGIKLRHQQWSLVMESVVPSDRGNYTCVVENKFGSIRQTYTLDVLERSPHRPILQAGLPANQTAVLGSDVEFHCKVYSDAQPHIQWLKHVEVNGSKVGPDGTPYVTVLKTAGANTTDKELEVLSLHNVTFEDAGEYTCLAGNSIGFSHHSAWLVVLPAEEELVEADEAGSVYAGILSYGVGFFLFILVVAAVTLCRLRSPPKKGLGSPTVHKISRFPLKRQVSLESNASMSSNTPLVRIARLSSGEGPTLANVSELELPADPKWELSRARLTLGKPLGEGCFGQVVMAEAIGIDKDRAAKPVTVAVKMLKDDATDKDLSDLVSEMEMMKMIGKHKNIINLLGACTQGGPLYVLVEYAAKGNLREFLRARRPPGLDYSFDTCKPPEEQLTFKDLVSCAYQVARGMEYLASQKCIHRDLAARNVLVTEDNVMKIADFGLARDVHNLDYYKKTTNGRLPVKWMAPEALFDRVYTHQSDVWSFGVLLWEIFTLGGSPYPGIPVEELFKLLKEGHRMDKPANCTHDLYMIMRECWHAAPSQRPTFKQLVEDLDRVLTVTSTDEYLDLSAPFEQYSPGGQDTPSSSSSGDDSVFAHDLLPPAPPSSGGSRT

For COc1cc(OC)c(F)c(N2Cc3cnc(-c4cncc(CN5CCOCC5)c4)cc3C3(CC3)C2=O)c1F [Example 16, 2′-(2,6-difluoro-3,5-dimethoxyphenyl)-6′-(5-(morpholinomethyl)pyridin-3-yl)-1′H-spiro[cyclopropane-1,4′-[2,7]naphthyridin]-3′(2′H)-one], the FGFR1/FGFR3 (FGFR3 enzyme) was >1, the FGFR1/FGFR4 (FGFR4; [1]) was >50 and the FGFR2/FGFR4 (FGFR4; [1]) was >25. For the same compound, the FGFR3/FGFR4 (FGFR4; [1]) was >10, the FGFR1/FGFR4 (FGFR4; [2]) was >25 and the FGFR2/FGFR4 (FGFR4; [2]) was >10. The FGFR3/FGFR4 (FGFR4; [2]) was >10.
With COc1cc(OC)c(F)c(N2Cc3cnc(-c4cncc(NS(C)(=O)=O)c4)cc3C3(CC3)C2=O)c1F [Example 15, N-(5-(2′-(2,6-difluoro-3,5-dimethoxyphenyl)-3′-oxo-2′,3′-dihydro-1′H-spiro[cyclopropane-1,4′-[2,7]naphthyridine]-6′-yl)pyridin-3-yl)methanesulfonamide] the FGFR1/FGFR3 (FGFR3 enzyme) was >3, the FGFR1/FGFR4 (FGFR4; [1]) was >50 and the FGFR2/FGFR4 (FGFR4; [1]) was >25. For the same compound, the FGFR3/FGFR4 (FGFR4; [1]) was >10, the FGFR1/FGFR4 (FGFR4; [2]) was >50 and the FGFR2/FGFR4 (FGFR4; [2]) was >25. The FGFR3/FGFR4 (FGFR4; [2]) was >10.
With COc1cc(OC)c(F)c(N2Cc3cnc(-c4nn(CC5CCOCC5)cc4C#N)cc3C3(CC3)C2=O)c1F [Example 173, 3-(2′-(2,6-difluoro-3,5-dimethoxyphenyl)-3′-oxo-2′,3′-dihydro-1′H-spiro[cyclopropane-1,4′-[2,7]naphthyridine]-6′-yl)-1-((tetrahydro-2H-pyran-4-yl)methyl)-1H-pyrazole-4-carbonitrile] the FGFR1/FGFR4 (FGFR4; [1]) was >100, the FGFR2/FGFR4 (FGFR4; [1]) was >100 and the FGFR3/FGFR4 (FGFR4; [1]) was >50.
In the case of COc1cc(OC)c(F)c(N2Cc3cnc(-c4cc(N)ccc4C)cc3C3(CC3)C2=O)c1F [Example 1, 6′-(5-amino-2-methylphenyl)-2′-(2,6-difluoro-3,5-dimethoxyphenyl)-1′H-spiro[cyclopropane-1,4′-[2,7]naphthyridin]-3′(2′H)-one], the FGFR1/FGFR4 (FGFR4; [1]) is reported as >25, the FGFR2/FGFR4 (FGFR4; [1]) is reported as >25 and the FGFR3/FGFR4 (FGFR4; [1]) is reported as >25. The FGFR1/FGFR4 (FGFR4; [2]) was >25, the FGFR2/FGFR4 (FGFR4; [2]) was >25 and the FGFR3/FGFR4 (FGFR4; [2]) was >50.
For COc1cc(OC)c(F)c(N2Cc3cnc(-c4cncc(F)c4)cc3C3(CC3)C2=O)c1F [Example 5, 2′-(2,6-difluoro-3,5-dimethoxyphenyl)-6′-(5-fluoropyridin-3-yl)-1′H-spiro[cyclopropane-1,4′-[2,7]naphthyridin]-3′(2′H)-one], the FGFR1/FGFR3 (FGFR3 enzyme) was >3, the FGFR1/FGFR4 (FGFR4; [1]) was >10 and the FGFR2/FGFR4 (FGFR4; [1]) was >5. The FGFR3/FGFR4 (FGFR4; [1]) was >1, the FGFR1/FGFR4 (FGFR4; [2]) was >10 and the FGFR2/FGFR4 (FGFR4; [2]) was >5. The FGFR3/FGFR4 (FGFR4; [2]) was >4.
With COc1cc(OC)c(F)c(N2Cc3cnc(-c4cccnc4)cc3C3(CC3)C2=O)c1F [Example 9, 2′-(2,6-difluoro-3,5-dimethoxyphenyl)-6′-(pyridin-3-yl)-1′H-spiro[cyclopropane-1,4′-[2,7]naphthyridin]-3′(2′H)-one] the FGFR1/FGFR3 (FGFR3 enzyme) was >3, the FGFR1/FGFR4 (FGFR4; [1]) was >10 and the FGFR2/FGFR4 (FGFR4; [1]) was >1. For the same compound, the FGFR3/FGFR4 (FGFR4; [1]) was >1, the FGFR1/FGFR4 (FGFR4; [2]) was >5 and the FGFR2/FGFR4 (FGFR4; [2]) was >1. The FGFR3/FGFR4 (FGFR4; [2]) was >1.
For COc1cc(OC)c(F)c(N2Cc3cnc(-c4nn(CC#N)cc4C#N)cc3C3(CC3)C2=O)c1F [Example 174, 1-(cyanomethyl)-3-(2′-(2,6-difluoro-3,5-dimethoxyphenyl)-3′-oxo-2′,3′-dihydro-1′H-spiro[cyclopropane-1,4′-[2,7]naphthyridine]-6′-yl)-1H-pyrazole-4-carbonitrile], the FGFR1/FGFR4 (FGFR4; [1]) was >100, the FGFR2/FGFR4 (FGFR4; [1]) was >10 and the FGFR3/FGFR4 (FGFR4; [1]) was >25.
COc1cc(OC)c(F)c(N2Cc3cnc(-c4cc(N)c(F)cc4C)cc3C3(CC3)C2=O)c1F [Example 2, 6′-(5-amino-4-fluoro-2-methylphenyl)-2′-(2,6-difluoro-3,5-dimethoxyphenyl)-1′H-spiro[cyclopropane-1,4′-[2,7]naphthyridin]-3′(2′H)-one] was tested, and the FGFR1/FGFR4 (FGFR4; [1]) was >10, the FGFR2/FGFR4 (FGFR4; [1]) was >10 and the FGFR3/FGFR4 (FGFR4; [1]) was >10. The FGFR1/FGFR4 (FGFR4; [2]) was >10, the FGFR2/FGFR4 (FGFR4; [2]) was >10 and the FGFR3/FGFR4 (FGFR4; [2]) was >10.
In the case of COc1cc(OC)c(F)c(N2Cc3cnc(-c4cncc(S(=O)(=O)N5CCOCC5)c4)cc3C3(CC3)C2=O)c1F [Example 14, 2′-(2,6-difluoro-3,5-dimethoxyphenyl)-6′-(5-(morpholinosulfonyl)pyridin-3-yl)-1′H-spiro[cyclopropane-1,4′-[2,7]naphthyridin]-3′(2′H)-one], the FGFR1/FGFR3 (FGFR3 enzyme) is reported as >5, the FGFR1/FGFR4 (FGFR4; [1]) is reported as >50 and the FGFR2/FGFR4 (FGFR4; [1]) is reported as >10. The FGFR3/FGFR4 (FGFR4; [1]) was >1, the FGFR1/FGFR4 (FGFR4; [2]) was >25 and the FGFR2/FGFR4 (FGFR4; [2]) was >5. The FGFR3/FGFR4 (FGFR4; [2]) was >5.
In the case of COc1cc(OC)c(F)c(N2Cc3cnc(-c4nn(C)cc4C#N)cc3C3(CC3)C2=O)c1F [Example 172, 3-(2′-(2,6-difluoro-3,5-dimethoxyphenyl)-3′-oxo-2′,3′-dihydro-1′H-spiro[cyclopropane-1,4′-[2,7]naphthyridine]-6′-yl)-1-methyl-1H-pyrazole-4-carbonitrile], the FGFR1/FGFR4 (FGFR4; [1]) is reported as >50, the FGFR2/FGFR4 (FGFR4; [1]) is reported as >25 and the FGFR3/FGFR4 (FGFR4; [1]) is reported as >10.
For COc1cc(OC)c(F)c(N2Cc3cnc(-c4cncc(N5CCOCC5)c4)cc3C3(CC3)C2=O)c1F [Example 6, 2′-(2,6-difluoro-3,5-dimethoxyphenyl)-6′-(5-morpholinopyridin-3-yl)-1′H-spiro[cyclopropane-1,4′-[2,7]naphthyridin]-3′(2′H)-one], the FGFR1/FGFR3 (FGFR3 enzyme) was >3, the FGFR1/FGFR4 (FGFR4; [1]) was >100 and the FGFR2/FGFR4 (FGFR4; [1]) was >100. For the same compound, the FGFR3/FGFR4 (FGFR4; [1]) was >25, the FGFR1/FGFR4 (FGFR4; [2]) was >100 and the FGFR2/FGFR4 (FGFR4; [2]) was >100. For the same compound, the FGFR3/FGFR4 (FGFR4; [2]) was >50.
In the case of COc1cc(OC)c(F)c(N2Cc3cnc(-c4cncc(C(=O)N5CCOCC5)c4)cc3C3(CC3)C2=O)c1F [Example 13, 2′-(2,6-difluoro-3,5-dimethoxyphenyl)-6′-(5-(morpholine-4-carbonyl)pyridin-3-yl)-1′H-spiro[cyclopropane-1,4′-[2,7]naphthyridin]-3′(2′H)-one], the FGFR1/FGFR3 (FGFR3 enzyme) is reported as >3, the FGFR1/FGFR4 (FGFR4; [1]) is reported as >50 and the FGFR2/FGFR4 (FGFR4; [1]) is reported as >25. For the same compound, the FGFR3/FGFR4 (FGFR4; [1]) was >10, the FGFR1/FGFR4 (FGFR4; [2]) was >50 and the FGFR2/FGFR4 (FGFR4; [2]) was >20. For the same compound, the FGFR3/FGFR4 (FGFR4; [2]) was >10.
COc1cc(OC)c(F)c(N2Cc3cnc(-c4cncc(N)c4)cc3C3(CC3)C2=O)c1F [Example 4, 6′-(5-aminopyridin-3-yl)-2′-(2,6-difluoro-3,5-dimethoxyphenyl)-1′H-spiro[cyclopropane-1,4′-[2,7]naphthyridin]-3′(2′H)-one] was tested, and the FGFR1/FGFR3 (FGFR3 enzyme) was >1, the FGFR1/FGFR4 (FGFR4; [1]) was >25 and the FGFR2/FGFR4 (FGFR4; [1]) was >10. The FGFR3/FGFR4 (FGFR4; [1]) was >10, the FGFR1/FGFR4 (FGFR4; [2]) was >10 and the FGFR2/FGFR4 (FGFR4; [2]) was >10. The FGFR3/FGFR4 (FGFR4; [2]) was >5.
COc1cc(OC)c(F)c(N2Cc3cnc(-c4cc(N)ccc4C#N)cc3C3(CC3)C2=O)c1F [Example 3, 4-amino-2-(2′-(2,6-difluoro-3,5-dimethoxyphenyl)-3′-oxo-2′,3′-dihydro-1′H-spiro[cyclopropane-1,4′-[2,7]naphthyridine]-6′-yl)benzonitrile] was tested, and the FGFR1/FGFR4 (FGFR4; [1]) was >25, the FGFR2/FGFR4 (FGFR4; [1]) was >25 and the FGFR3/FGFR4 (FGFR4; [1]) was >10. The FGFR1/FGFR4 (FGFR4; [2]) was >25, the FGFR2/FGFR4 (FGFR4; [2]) was >25 and the FGFR3/FGFR4 (FGFR4; [2]) was >25.
For COc1cc(OC)c(F)c(N2Cc3cnc(-c4[nH]ncc4C#N)cc3C3(CC3)C2=O)c1F [Example 171, 5-(2′-(2,6-difluoro-3,5-dimethoxyphenyl)-3′-oxo-2′,3′-dihydro-1′H-spiro[cyclopropane-1,4′-[2,7]naphthyridine]-6′-yl)-1H-pyrazole-4-carbonitrile], the FGFR1/FGFR4 (FGFR4; [1]) was >10, the FGFR2/FGFR4 (FGFR4; [1]) was >10 and the FGFR3/FGFR4 (FGFR4; [1]) was >10.
COc1cc(OC)c(F)c(N2Cc3cnc(-c4cn(C)nc4C)cc3N(C3CCN(C(C)=O)CC3)C2=O)c1F [Example 43, 1-(1-acetylpiperidin-4-yl)-3-(2,6-difluoro-3,5-dimethoxyphenyl)-7-(1,3-dimethyl-1H-pyrazol-4-yl)-3,4-dihydropyrido[4,3-d]pyrimidin-2(1H)-one] was tested, and the FGFR1/FGFR3 (FGFR3 enzyme) was >10 and the FGFR4/FGFR3 (FGFR3 enzyme) was >5.
In the case of COc1cc(OC)c(F)c(N2Cc3cnc(-c4cn(C)nc4C)cc3N(c3ccc(-n4cccn4)cc3)C2=O)c1F [Example 77, 1-(4-(1H-pyrazol-1-yl)phenyl)-3-(2,6-difluoro-3,5-dimethoxyphenyl)-7-(1,3-dimethyl-1H-pyrazol-4-yl)-3,4-dihydropyrido[4,3-d]pyrimidin-2(1H)-one], the FGFR1/FGFR3 (FGFR3 enzyme) is reported as >5 and the FGFR4/FGFR3 (FGFR3 enzyme) is reported as >10.
For COc1cc(OC)c(F)c(N2Cc3cnc(-c4cn(C)nc4C)cc3N(c3ccccc3F)C2=O)c1F [Example 110, 3-(2,6-difluoro-3,5-dimethoxyphenyl)-7-(1,3-dimethyl-1H-pyrazol-4-yl)-1-(2-fluorophenyl)-3,4-dihydropyrido[4,3-d]pyrimidin-2(1H)-one], the FGFR1/FGFR3 (FGFR3 enzyme) was >3 and the FGFR4/FGFR3 (FGFR3 enzyme) was >5.
With CCN1C(=O)N(c2c(F)c(OC)cc(OC)c2F)Cc2cnc(-c3ccc(C(C)(C)C#N)nc3)cc21 [Example 26, 2-(5-(3-(2,6-difluoro-3,5-dimethoxyphenyl)-1-ethyl-2-oxo-1,2,3,4-tetrahydropyrido[4,3-d]pyrimidin-7-yl)pyridin-2-yl)-2-methylpropanenitrile] the FGFR1/FGFR3 (FGFR3 enzyme) was >5 and the FGFR4/FGFR3 (FGFR3 enzyme) was >5.
CCN1C(=O)N(c2c(F)c(OC)cc(OC)c2F)Cc2cnc(-c3cccnc3)cc21 [Example 23, 3-(2,6-difluoro-3,5-dimethoxyphenyl)-1-ethyl-7-(pyridin-3-yl)-3,4-dihydropyrido[4,3-d]pyrimidin-2(1H)-one] was tested, and the FGFR1/FGFR3 (FGFR3 enzyme) was >5.
For COc1cc(OC)c(F)c(N2Cc3cnc(-c4cn(C)nc4C)cc3N(C3CCCC3)C2=O)c1F [Example 32, 1-cyclopentyl-3-(2,6-difluoro-3,5-dimethoxyphenyl)-7-(1,3-dimethyl-1H-pyrazol-4-yl)-3,4-dihydropyrido[4,3-d]pyrimidin-2(1H)-one], the FGFR1/FGFR3 (FGFR3 enzyme) was >1 and the FGFR4/FGFR3 (FGFR3 enzyme) was >5.

Source: US10251892B2, “Bicyclic heterocycles as FGFR4 inhibitors” (Incyte Corporation, priority 2015, dated 2019)
